Experiments:
[1] = Measure of pH and EPA residual after neutral (water) dissolution and size exclusion filtration; settings: 22 g water 130° C., 250 psi; receiver 10 g of 360 mM NaOH, 200 mM TRIS, 268 μM EDTA; two 20 μm frits
Method: A fluid path syringe was filled with 22 g of 18.2 MΩcm water and 10 g of 360 mM NaOH, 200 mM TRIS and 268 μM EDTA was placed in the fluid path receiver. A mixture of ^12C pyruvic acid and EPA were in the approximate ratio of 53:1 was placed in the sample container of the fluid path. The water in the syringe was heated to 130° C. and was pressurized to 250 psi. The filter body was filled with two frits used as particle size exclusion filters (Varian, part number 12131043, 1.5″ diameter, average pore size 20 μm).

[2] = pH-solubility profile of the EPA; type: physicochemical
Text: In an exemplary embodiment of the invention sterile deionized water is placed in the syringe of the sterile fluid path (SFP), a sample of ^13CPA mixed with EPA is placed in the sample container and NaOH, TRIS, and EDTA are placed in the receiver. Size exclusion filters are placed in the filter cartridge. In this embodiment, the pH-solubility profile of the EPA is considered.

Row | pH of resulting solution in the receiver [1] | solubility in aqueous solutions ([2]; above pH 4) | particulate diameter ([2]; pH less than 4) | solubility in aqueous solution ([2]; pH less than 4) | Compound
1 | 7.97 | – | – | – | CC(=O)C(=O)O [^12C pyruvic acid]
2 | – | soluble | greater than or equal to 10 microns | predominantly insoluble | tris {8-carboxyl-2,2,6,6-tetra[2-(1-methoxyethyl)]-benzo(1,2-d:4,5-d′)bis(1,3)dithiole-4-yl}methyl sodium salt [EPA]

Source: patent US8763410B2, “Method and apparatus for the dissolution and filtration of a hyperpolarized agent with a neutral dissolution media” (General Electric Company, priority 2008, dated 2014)
